Data from patent US8334308B2, “Renin inhibitors” (Merck Sharp & Dohme Corp., priority 2007, dated 2012).

Legend:
human recombinant renin = molecular target: T1, human recombinant renin (Homo sapiens, UniProt P00797); assay: Inhibition of human recombinant renin (enzymatic in vitro assay, Ang I EIA); assay type: biochemical; conditions: human recombinant renin 40 pM, buffer, 37° C. 3 h
T1 sequence (P00797 67-406): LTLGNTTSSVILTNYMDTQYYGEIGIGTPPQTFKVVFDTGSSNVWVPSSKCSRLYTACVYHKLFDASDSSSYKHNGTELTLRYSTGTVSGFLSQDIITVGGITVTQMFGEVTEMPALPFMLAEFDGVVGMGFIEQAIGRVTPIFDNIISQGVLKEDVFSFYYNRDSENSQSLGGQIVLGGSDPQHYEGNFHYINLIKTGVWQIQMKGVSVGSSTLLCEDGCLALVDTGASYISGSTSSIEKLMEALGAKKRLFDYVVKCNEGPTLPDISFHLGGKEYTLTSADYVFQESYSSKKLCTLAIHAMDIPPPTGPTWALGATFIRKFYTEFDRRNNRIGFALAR
Experimental: Inhibition of Human Recombinant Renin
(§1) The enzymatic in vitro assay was performed in 384-well polypropylene plates (Nunc). The assay buffer consisted of PBS (Gibco BRL) including 1 mM EDTA and 0.1% BSA. The reaction mixture were composed of 47.5 μL per well of an enzyme mix and 2.5 μL of renin inhibitors in DMSO. The enzyme mix was premixed at 4° C. and consists of the following components: […]
human recombinant renin (40 pM) synthetic human angiotensin(1-14) (0.5 μM) hydroxyquinoline sulfate (1 mM)
The mixtures were then incubated at 37° C. for 3 h. The enzyme reaction was stopped by placing the reaction plate on wet ice.
(§2) To determine the enzymatic activity and its inhibition, the accumulated Ang I was detected by an enzyme immunoassay (EIA) in 384-well plates (Nunc). 5 μL of the reaction mixture or standards were transferred to immuno plates which were previously coated with a covalent complex of Ang I and bovine serum albumin (Ang I-BSA). 75 μL of Ang I-antibodies in assay buffer above including 0.01% Tween 20 were added and the plates were incubated at 4° C. overnight.
An alternative protocol could be used by stopping the enzymatic reaction with 0.02N final concentration of HCl. 5 μL of the reaction mixture or standards were transferred to immuno plates and 75 μL of Ang I-antibodies in assay buffer above including 0.01% Tween 20 were added and the plates were incubate at RT for 4 h.

renin in human plasma = molecular target: T2, renin in human plasma (Homo sapiens, UniProt P00797); assay: Inhibition of renin in human plasma (enzymatic in vitro assay, Ang I EIA); assay type: biochemical; conditions: human plasma from 10 normal donors, 37° C. 2 h
T2 construct: host or cells: recombinant renin of unstated origin added to human plasma from 10 normal donors
T2 sequence (P00797 67-406): T1 sequence (P00797 67-406)
Experimental: Inhibition of Renin in Human Plasma
as §1, with “was” for “were”, “80 μL,” for “47.5 μL”, “human plasma, enzyme, Ang I-antibodiesmix” for “an enzyme mix”, “5” for “2.5”, “human plasma” for “enzyme”, “of” for “of the following components:”
human plasma from 10 normal donors human recombinant renin (3 μM)
The mixtures were then incubated at 37° C. for 2 h.
as §2, with “10” for “5”, “70” for “75”, “μL” for “μL of Ang I-antibodies in”, “buffer” for “buffer above including 0.01% Tween 20”

Structure (SMILES)	IC50 (human recombinant renin)	IC50 (renin in human plasma)
COCCOc1ccccc1-c1ccc(C(CN)Cc2ccc(OCCOc3c(Cl)cc(C)cc3Cl)cc2)c(C)c1 (stereo not drawn) [Example 4, 3-{4-[2-(2,6-dichloro-4-methylphenoxy)ethoxy]phenyl}-2-[2′-(2-methoxyethoxy)-3-methylbiphenyl-4-yl]propan-1-amine]	7.4 nM	1500 nM
COCCCc1cccc(C)c1-c1ccc(C(CN)Cc2ccc(OCCOc3c(Cl)cc(C)cc3Cl)cc2)c(C)c1 (stereo not drawn) [Example 12, 3-{4-[2-(2,6-dichloro-4-methylphenoxy)ethoxy]phenyl}-2-[2′-(3-methoxypropyl)-3,6′-dimethylbiphenyl-4-yl]propan-1-amine]	0.2 nM	643 nM
Cc1cc(Cl)c(OCCOc2ccc(CC(CN)c3ccc(-c4ccccc4CCC(=O)N(C)C)cc3C)cc2)c(Cl)c1 (stereo not drawn) [Example 24, 3-[4′-(2-amino-1-{4-[2-(2,6-dichloro-4-methylphenoxy)ethoxy]benzyl}ethyl)-3′-methylbiphenyl-2-yl]-N—N-dimethylpropanamide]	30.8 nM	> 1110 nM
Cc1cc(Cl)c(OCCOc2ccc(CC(CN)c3ccc(-c4c(Cl)cccc4Cl)cc3C)cc2)c(Cl)c1 (stereo not drawn) [Example 39]	16.3 nM	2320 nM
Cc1cc(Cl)c(OCCOc2ccc(CC(CN)c3ccc(-c4ccccc4Cl)cc3C)cc2)c(Cl)c1 (stereo not drawn) [Example 1, 2-(2′-Chloro-3-methyl-biphenyl-4-yl)-3-{4-[2-(2,6-dichloro-4-methyl-phenoxy)-ethoxy]-phenyl}-propylamine]	6 nM	796 nM
Cc1cc(Cl)c(OCCOc2ccc(CC(CN)c3ccc(-c4ccccc4CCC#N)cc3C)cc2)c(Cl)c1 (stereo not drawn) [Example 14, 3-[4′-(2-amino-1-{4-[2-(2,6-dichloro-4-methylphenoxy)ethoxy]benzyl}ethyl)-3′-methylbiphenyl-2-yl]propanenitrile]	10.6 nM	544 nM
Cc1cc(Cl)c(OCCOc2ccc(CC(CN)c3ccc(-c4ccccc4Cl)cc3)cc2)c(Cl)c1 (stereo not drawn) [Example 6, 2-(2′-chlorobiphenyl-4-yl)-3-{4-[2-(2,6-dichloro-4-methylphenoxy)ethoxy]phenyl}propan-1-amine]	44.4 nM	–
Cc1cc(Cl)c(OCCOc2ccc(CC(CN)c3ccc(-c4ccccc4Cl)cc3F)cc2)c(Cl)c1 (stereo not drawn) [Example 7, 2-(2′-chloro-3-fluorobiphenyl-4-yl)-3-{4-[2-(2,6-dichloro-4-methylphenoxy)ethoxy]phenyl}propan-1-amine]	7 nM	1150 nM
CC(=O)NCCc1ccccc1-c1ccc(C(CN)Cc2ccc(OCCOc3c(Cl)cc(C)cc3Cl)cc2)c(C)c1 (stereo not drawn) [Example 30, 2-{2′-[2-(acetylamino)ethyl]-3-methylbiphenyl-4-yl}-3-{4-[2-(2,6-dichloro-4-methylphenoxy)ethoxy]phenyl}propan-1-aminium chloride]	–	9.6 nM
COCCCc1ncccc1-c1ccc(C(CN)Cc2ccc(OCCOc3c(Cl)cc(C)cc3Cl)cc2)c(C)c1 (stereo not drawn) [Example 16, 3-{4-[2-(2,6-dichloro-4-methylphenoxy)ethoxy]phenyl}-2-{4-[2-(3-methoxypropyl)pyridin-3-yl]-2-methylphenyl}propan-1-amine]	1.1 nM	94.6 nM
COCCCc1ccccc1-c1ccc(C(CN)Cc2ccc(OCCOc3c(Cl)cc(C)cc3Cl)cc2)c(C)c1 (stereo not drawn) [Example 3, 3-{4-[2-(2,6-dichloro-4-methylphenoxy)ethoxy]phenyl}-2-[2′-(3-methoxypropyl)-3-methylbiphenyl-4-yl]propan-1-amine]	0.4 nM	116 nM
COCCCc1c(-c2ccc(C(CN)Cc3ccc(OCCOc4c(Cl)cc(C)cc4Cl)cc3)c(C)c2)ccc[n+]1[O-] (stereo not drawn) [Example 21, 3-{-4-[2-(2,6-dichloro-4-methylphenoxy)ethoxy]phenyl}-2-{4-[2-(3-methoxypropyl)-1-oxidopyridin-3-yl]-2-methylphenyl}propan-1-amine]	4.3 nM	103 nM
COc1cc(-c2ccccc2Cl)ccc1C(CN)Cc1ccc(OCCOc2c(Cl)cc(C)cc2Cl)cc1 (stereo not drawn) [Example 8, 2-(2′-chloro-3-methoxybiphenyl-4-yl)-3-{4-[2-(2,6-dichloro-4-methylphenoxy)ethoxy]phenyl}propan-1-amine]	47.6 nM	3620 nM
COCCCc1ccccc1-c1cc(C(F)(F)F)c(C(CN)Cc2ccc(OCCOc3c(Cl)cc(C)cc3Cl)cc2)cn1 (stereo not drawn) [Example 11, 3-{4-[2-(2,6-dichloro-4-methylphenoxy)ethoxy]phenyl}-2-[6-[2-(3-methoxypropyl)phenyl]-4-(trifluoromethyl)pyridin-3-yl]propan-1-amine]	0.3 nM	21 nM
COCCc1ccccc1-c1ccc(C(CN)Cc2ccc(OCCOc3c(Cl)cc(C)cc3Cl)cc2)c(C)c1 (stereo not drawn) [Example 2, 3-{4-[2-(2,6-dichloro-4-methylphenoxy)ethoxy]phenyl}-2-[2′-(2-methoxyethyl)-3-methylbiphenyl-4-yl]propan-1-amine]	19.7 nM	1920 nM
COCCCc1ccccc1-c1ccc(C(CN)Cc2cc(F)cc(F)c2)c(C)c1 (stereo not drawn) [Example 32, 3-(3,5-difluorophenyl)-2-[2′-(3-methoxypropyl)-3-methylbiphenyl-4-yl]propan-1-amine]	285 nM	> 10000 nM
Cc1cc(Cl)c(OCCOc2ccc(CC(CN)c3ccc(-c4ccccc4Cl)cc3Cl)cc2)c(Cl)c1 (stereo not drawn) [Example 10, 2-(2′,3-dichlorobiphenyl-4-yl)-3-{4-[2-(2,6-dichloro-4-methylphenoxy)ethoxy]phenyl}propan-1-amine]	0.5 nM	764 nM
COCCCc1ccccc1-c1ccc(C(CN)Cc2ccc(OCCOc3c(Cl)cc(C)cc3Cl)cc2)c(C(F)(F)F)c1 (stereo not drawn) [Example 13, 3-{4-[2-(2,6-dichloro-4-methylphenoxy)ethoxy]phenyl}-2-[2′-(3-methoxypropyl)-3-(trifluoromethyl)biphenyl-4-yl]propan-1-amine]	0.9 nM	156 nM
COCCCOc1ccccc1-c1ccc(C(CN)Cc2ccc(OCCOc3c(Cl)cc(C)cc3Cl)cc2)c(C)c1 (stereo not drawn) [Example 5, 3-{4-[2-(2,6-dichloro-4-methylphenoxy)ethoxy]phenyl}-2-[2′-(3-methoxypropoxy)-3-methylbiphenyl-4-yl]propan-1-amine]	1.7 nM	1160 nM
